One substance from patent publication US20100105610A1, “Methods of Inhibiting Tumor Cell Aggressiveness Using the Microenvironment of Human Embryonic Stem Cells” (CHILDREN'S MEMORIAL HOSPITAL, priority 2006, published 2010) can be followed below.

The test system of one data set is Nodal. The data set is described as follows: Nodal protein expression, Western blot. It counts as cell-based, human. As to conditions: after administration of anti-Nodal Morpholino. As to the method:
(§1) Protein lysates were prepared and quantified as previously described in Hess et al., 2001, Cancer Res. 61:3250-3255. Equal amounts of protein were separated by SDS-polyacrylamide gel electrophoresis under reducing conditions, and the resolved proteins were transferred onto Immobilon-P membranes (Millipore Corp., Bedford, Mass.). Membranes were blocked in 1% TBS, 0.1% Tween 20 (TBS-T) and 5% dry milk powder or 3% gelatin (for Nodal Westerns). Blots were incubated with anti-Nodal or anti-Lefty antibodies (Polyclonal rabbit anti-Nodal (H-110) 1:500 Santa Cruz Biotechnology, Santa Cruz, Calif.; Polyclonal goat anti-Lefty 1:500 R&D Systems, Minneapolis, Minn.), washed in TBS-T, and incubated with the appropriate horseradish peroxidase-labeled secondary antibody. Secondary antibodies were detected by enhanced chemiluminescence (Super Signal; Pierce, Rockford, Ill.) and exposure to autoradiography film (Molecular Technologies, St Louis, Mo.). Nodal protein was detected as two major bands at ˜48 and ˜35 kDa representing precursor and pro-Nodal respectively. Nodal often appeared as multiple bands, likely due to degradation of protein modifications. All experiments were done at least three times.
Conditioned matrices were prepared using hESCs, melanocytes, myoepithelial cells, amniotic fluid derived stem cells, or trophoblast cells on growth factor-reduced Matrigel (14 mg/mL; BD Biosciences) as previously described. Postovit et al., 2006, Stem Cells 24: 501-505. In all cases, cells were 80-100% confluent during the conditioning of the matrix. Alternatively, hESC-derived Lefty protein was seeded into Matrigel prior to polymerization. Human melanoma (C8161) or breast carcinoma (MDA-MB-231) cells, 2.5×10^5 cells/6-well dish, were subsequently exposed to this preconditioned matrix for 3 to 4 days.
as §1, with “primary antibody (Table 2),” for “anti-Nodal or anti-Lefty antibodies (Polyclonal rabbit anti-Nodal (H-110) 1:500 Santa Cruz Biotechnology, Santa Cruz, Calif.; Polyclonal goat anti-Lefty 1:500 R&D Systems, Minneapolis, Minn.),”, “TBS-T or TBS-T containing 0.5M NaCl for the Nodal Westerns,” for “TBS-T,”, “Nodal often appeared as multiple bands, likely due to degradation of protein modifications. All experiments were done at least three times.” left out

The next data set relates to C8161 melanoma cells. The data set is described as follows: In vivo tumor cell proliferation-to-apoptosis ratio (Ki67 / TUNEL), C8161 tumors. As to conditions: C8161 cells treated prior to injection into mouse. An excerpt: (A) In vivo tumor formation in a mouse injected with MDA-MB-231 cells pre-exposed for 3 days to either a control matrix (Matrigel) or a matrix conditioned by hESCs (H9 CMTX) (n=10) (B) C81-61 cells, transfected with either an empty vector or a Nodal expression construct (n=5), and (C) MDA-MB-231 cells treated with either MO^Control or MO^Nodal (n=10). […] (D) The ratio of tumor cell proliferation to apoptosis for C8161 and MDA-MB-231 derived tumors, determined by immunohistochemical staining for Ki67 and terminal deoxynucleotidyl transferase biotin-dUTP nick-end labeling (TUNEL). Prior to injection into a mouse, C8161 and MDA-MB-231 cells were cultured for 3 days on control or hESC conditioned (H9 CMTX) matrices, or treated with MO^Nodal to knock down Nodal expression. […] (E) Immunohistochemical analysis of Ki67 expression (red/brown) and TUNEL staining in orthotopic melanoma (C8161) and breast carcinoma (MDA-MB-231) tumors. […] Proliferation is indicated by Ki67 staining and apoptotic nuclei were detected with confocal microscopy as red staining localized to the nuclei of apoptotic C8161 or MDA-MB-231 cells. […]
In order to establish a mechanism by which exposure to the hESC microenvironment abrogates tumorigenicity, the effects of this treatment on the in vivo tumor cell proliferation-to-apoptosis ratio were analyzed. […]

In a further data set the test system is C8161 cells. The data set is described as follows: Anchorage independent growth / soft agar colony formation, C8161. It counts as cell-based, human. The following applies: C8161 cells, soft agar, after 2 weeks. As to the method:
An in vitro colony forming assay was used to analyze colony-forming ability of poorly aggressive C81-61 cells, aggressive C8161 cells, C8161 cells treated with MONodal and C8161 cells treated with MONodal and rescued with recombinant Nodal (100 ng/mL). The assay was conducted using 50,000 cells suspended in 0.35% agarose in RPMI containing 10% serum, which were plated into 6-well dishes on 0.5% agar in the same medium. Colonies grew, and pictures were taken at day 7. After 2 weeks, colonies were stained with Crystal Violet and counted.
Clonogenicity of cells are assessed as previously described. Hamburger, A. W., and Salmon, S. E., 1977, Science 197:461-463. Each parameter is tested in triplicate for clone formation in soft agar. Briefly, […] are plated in 60 mm Petri dishes in complete medium placed over the soft agar. On specific days after the cells are plated, phase contrast images of the colonies are taken using a Zeiss Axiovert 25 with an Hitachi HCV-20 color camera.
Anchorage independent growth assays were conducted as previously described. Topczewska et al., 2006, Nat. Med. 12: 925-932.

In the case of “MO^Nodal: antisense Morpholino to Nodal, 5′-AAGCAGCACCTCCAGCCCTTATATC-3′ (SEQ ID NO: 20) (all phosphorodiamidate morpholino (PMO); further chemistry not fully specified)”, the Nodal expression entry in the data set with Nodal was “down-regulation”. Moreover, in the data set with C8161 melanoma cells, the “ratio of proliferation to apoptosis” value was “decreased”. Moreover, the “reduction of colony formation” value in the data set with C8161 cells was found to be 57%.
